Assay results reported in ChEMBL document CHEMBL3352242, “Structure-based design of substituted piperidines as a new class of highly efficacious oral direct Renin inhibitors” (ACS Med Chem Lett, 2014).
Active and inactive are the calls of the source. No cut-off for these calls is given here.

Columns and labels:
Renin [1] = target: T1, Renin (Homo sapiens, UniProt P00797); test: Inhibition of human recombinant renin using fluorescence-quenched RE(EDANS)IHPFHLVIHTK(Dabcyl)R substrate by fluorimetric assay
T1 sequence (P00797 whole entry): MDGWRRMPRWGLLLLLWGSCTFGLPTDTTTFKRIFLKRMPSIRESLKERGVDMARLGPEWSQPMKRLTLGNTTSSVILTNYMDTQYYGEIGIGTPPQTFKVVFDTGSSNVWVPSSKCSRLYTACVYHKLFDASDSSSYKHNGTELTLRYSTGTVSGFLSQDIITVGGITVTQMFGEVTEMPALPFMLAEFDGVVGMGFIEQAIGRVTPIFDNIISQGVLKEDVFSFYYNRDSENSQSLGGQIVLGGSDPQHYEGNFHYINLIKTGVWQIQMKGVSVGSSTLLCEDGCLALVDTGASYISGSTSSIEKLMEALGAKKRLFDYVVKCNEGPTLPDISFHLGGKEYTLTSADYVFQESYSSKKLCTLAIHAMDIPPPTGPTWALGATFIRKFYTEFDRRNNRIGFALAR

[2] = Clearance in rat liver microsomes; format: ADME; conditions: read-out: CLH
[3] = target: Voltage-gated inwardly rectifying potassium channel KCNH2 (Homo sapiens, UniProt Q12809); test: Displacement of [3H]dofetilide from human ERG expressed in HEK293 cell membranes incubated for 90 mins by beta-counting method
Sequence of Voltage-gated inwardly rectifying potassium channel KCNH2 (Q12809 whole entry): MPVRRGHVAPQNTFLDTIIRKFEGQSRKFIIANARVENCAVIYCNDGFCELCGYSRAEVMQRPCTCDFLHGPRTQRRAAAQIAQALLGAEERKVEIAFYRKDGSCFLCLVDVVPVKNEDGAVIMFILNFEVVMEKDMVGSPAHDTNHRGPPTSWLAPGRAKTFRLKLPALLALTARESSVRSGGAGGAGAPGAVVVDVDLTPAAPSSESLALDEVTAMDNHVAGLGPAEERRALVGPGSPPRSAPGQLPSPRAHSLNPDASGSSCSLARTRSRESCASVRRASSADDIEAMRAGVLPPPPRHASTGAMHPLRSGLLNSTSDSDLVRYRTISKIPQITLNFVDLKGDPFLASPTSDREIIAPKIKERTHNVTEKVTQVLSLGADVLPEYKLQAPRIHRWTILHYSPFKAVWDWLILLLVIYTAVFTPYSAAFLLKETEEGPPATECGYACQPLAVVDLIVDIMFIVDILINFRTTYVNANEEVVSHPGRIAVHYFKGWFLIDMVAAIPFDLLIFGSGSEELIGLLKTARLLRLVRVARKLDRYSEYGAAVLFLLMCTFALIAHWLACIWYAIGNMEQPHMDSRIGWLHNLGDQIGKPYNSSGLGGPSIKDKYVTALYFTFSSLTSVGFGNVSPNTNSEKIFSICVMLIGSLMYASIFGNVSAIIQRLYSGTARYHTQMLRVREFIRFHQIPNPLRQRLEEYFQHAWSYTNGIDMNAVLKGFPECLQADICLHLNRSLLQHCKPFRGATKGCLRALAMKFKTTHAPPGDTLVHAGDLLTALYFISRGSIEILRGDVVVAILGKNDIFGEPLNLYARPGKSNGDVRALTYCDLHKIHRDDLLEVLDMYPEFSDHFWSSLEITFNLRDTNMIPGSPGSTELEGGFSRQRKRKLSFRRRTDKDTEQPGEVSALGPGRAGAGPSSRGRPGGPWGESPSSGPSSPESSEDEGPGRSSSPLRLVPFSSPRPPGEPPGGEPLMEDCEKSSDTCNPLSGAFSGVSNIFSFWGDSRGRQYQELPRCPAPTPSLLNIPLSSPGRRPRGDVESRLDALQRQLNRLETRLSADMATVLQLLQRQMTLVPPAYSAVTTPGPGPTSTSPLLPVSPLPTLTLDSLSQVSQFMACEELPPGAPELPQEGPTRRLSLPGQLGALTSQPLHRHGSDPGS

Renin [4] = target: T1, Renin; test: Inhibition of human recombinant renin in presence of human plasma using Ac- IHPFHL-VIHNK-(DY-505-X5)-COOH substrate by fluorimetric assay
[5] = Clearance in human liver microsomes; format: ADME; conditions: read-out: CLH
Rattus norvegicus [6] = test: Dose normalized Cmax inSprague-Dawley rat at 6 mg/kg, po; format: ADME, organism-based, Sprague-Dawley; parameters: dose 6 mg/kg, route oral; conditions: in vivo
[7] = Clearance in Sprague-Dawley rat at 2 mg/kg, iv; format: ADME, organism-based; parameters: dose 2 mg/kg, route intravenous; conditions: in vivo
[8] = Volume of distribution at steady state in Sprague-Dawley rat at 2 mg/kg, iv; format: ADME, organism-based; parameters: dose 2 mg/kg, route intravenous; conditions: in vivo, read-out: Vdss
[9] = Oral bioavailability in Sprague-Dawley rat at 6 mg/kg; format: ADME, organism-based; conditions: in vivo
[10] = Half life in Sprague-Dawley rat at 2 mg/kg, iv; format: ADME, organism-based; parameters: dose 2 mg/kg, route intravenous; conditions: in vivo
Rattus norvegicus [11] = test: Dose normalized AUC (infinity) in Sprague-Dawley rat at 6 mg/kg, po; format: ADME, organism-based; parameters: dose 6 mg/kg, route oral; conditions: in vivo
[12] = Lipophilicity, logD of the compound at pH 6.8; format: physicochemical; conditions: buffer
Rattus norvegicus [13] = test: Reduction in mean arterial pressure in human renin and human angiotensinogen double transgenic rat at 1 to 100 mg/kg, po; format: functional, organism-based; conditions: Artery
Rattus norvegicus [14] = test: Reduction in mean arterial pressure in human renin and human angiotensinogen double transgenic rat at 100 mg/kg, po after 42 hrs; format: functional, organism-based; parameters: dose 100 mg/kg; conditions: Artery

IC50 (Renin [1]) [nM] | microsomal CLint [2] [µL/min/mg] | IC50 (Renin [4]) [nM] | microsomal CLint [5] [µL/min/mg] | bioavailability [9] [%] | Structure (SMILES) | also measured
300 | – | – | – | – | COCCCn1cc(CN(C(=O)[C@H]2CNC[C@@H](NC(=O)CC(C)C)C2)C2CC2)c2ccccc21 (racemic) | –
– | 198 | – | 61 | 20 | CCOC[C@@H](CC(C)C)NC(=O)[C@@H]1CNC[C@H](C(=O)N(c2cc3c(cc2F)OC(C)(C)C(=O)N3CCCOC)C2CC2)C1.Cl | Cmax/dose (Rattus norvegicus [6]): 12 nM/mg/kg; clearance [7]: 122 mL/min/kg; Vd [8]: 12 L/kg; half-life [10]: 1.9 h; AUC/dose (Rattus norvegicus [11]): 49 nM·h/mg/kg
– | – | – | – | 60 | CCOC[C@@H](CC(C)C)NC(=O)[C@@H]1CNC[C@H](C(=O)N(c2cc(OCC)c(CC)cn2)C2CC2)[C@@H]1O.O=C(O)/C=C/C(=O)O | Cmax/dose (Rattus norvegicus [6]): 252 nM/mg/kg; clearance [7]: 12.3 mL/min/kg; Vd [8]: 2.6 L/kg; half-life [10]: 5.9 h; AUC/dose (Rattus norvegicus [11]): 1630 nM·h/mg/kg
0.4 | 96 | 1 | 53 | 19 | CCOC[C@@H](CC(C)C)NC(=O)[C@@H]1CNC[C@H](C(=O)N(c2cc(OCCCOC)c(C(C)C)cn2)C2CC2)C1.Cl | Cmax/dose (Rattus norvegicus [6]): 18 nM/mg/kg; clearance [7]: 80 mL/min/kg; Vd [8]: 11 L/kg; half-life [10]: 4.3 h; AUC/dose (Rattus norvegicus [11]): 93 nM·h/mg/kg
– | – | – | – | 44 | CCOC[C@@H](CC(C)C)NC(=O)[C@@H]1CNC[C@H](C(=O)N(c2cc(OCC)c(CC)cn2)C2CC2)C1.O=C(O)C(O)C(O)C(=O)O | Cmax/dose (Rattus norvegicus [6]): 155 nM/mg/kg; clearance [7]: 23.3 mL/min/kg; Vd [8]: 4.6 L/kg; half-life [10]: 7.4 h; AUC/dose (Rattus norvegicus [11]): 690 nM·h/mg/kg
– | 13 | 1.1 | < 3.4 | – | CCOC[C@@H](CC(C)C)NC(=O)[C@@H]1CNC[C@H](C(=O)N(c2ccc(C(C)C)cn2)C2CC2)C1 [listing 1 of 2 here] | IC50 [3]: 7000 nM
3 | 111 | 8 | 157 | 0.4 | COCCCn1cc(CN(C(=O)[C@H]2CNC[C@@H](C(=O)N[C@@H](CO)CC(C)C)C2)C2CC2)c2ccccc21 | –
0.2 | 101 | 0.4 | 15 | – | CCOC[C@@H](CC(C)C)NC(=O)[C@@H]1CNC[C@H](C(=O)N(c2cc(OC)c(C(C)C)cn2)C2CC2)C1 [listing 1 of 2 here] | IC50 [3]: > 30000 nM
200 | – | – | – | – | CC(C)(C)OC(=O)N[C@@H]1CNC[C@H](C(=O)N(Cc2cccc(Cl)c2Cl)C2CC2)C1 (racemic) | –
1200 | – | 15200 | – | – | Cc1ccc(S(=O)(=O)N[C@@H]2CNC[C@H](C(=O)NC(c3ccccc3)c3ccccc3)C2)cc1 (racemic) | –
0.2 | 62 | – | 46 | – | CCOC[C@@H](CC(C)C)NC(=O)[C@@H]1CNC[C@H](C(=O)N(c2cc(OCC)c(CC)cn2)C2CC2)C1 [listing 1 of 2 here] | IC50 [3]: > 30000 nM
0.4 | 109 | 1 | 173 | < 0.1 | COCCCn1cc(CN(C(=O)[C@H]2CNC[C@@H](C(=O)N[C@H](CCO)c3ccccc3)C2)C2CC2)c2ccccc21 | –
– | – | – | – | 39 | CCOC[C@@H](CC(C)C)NC(=O)[C@@H]1CNC[C@H](C(=O)N(c2cc(OC)c(C(C)C)cn2)C2CC2)C1.O=C(O)C(O)C(O)C(=O)O | Cmax/dose (Rattus norvegicus [6]): 68 nM/mg/kg; clearance [7]: 40 mL/min/kg; Vd [8]: 4.3 L/kg; half-life [10]: 7 h; AUC/dose (Rattus norvegicus [11]): 324 nM·h/mg/kg
3 | 141 | 40 | 194 | 29 | COCCCn1cc(CN(C(=O)[C@H]2CNC[C@@H](C(=O)NCCC(C)C)C2)C2CC2)c2ccccc21 | –
– | – | – | – | – | CCOC[C@@H](CC(C)C)NC(=O)[C@@H]1CNC[C@H](C(=O)N(c2cc(OC)c(C(C)C)cn2)C2CC2)C1 [listing 2 of 2 here] | logD [12]: 2.2
15 | – | 115 | – | – | COCCCn1cc(CN(C(=O)[C@H]2CNC[C@@H](C(=O)NCC(C)C)C2)C2CC2)c2ccccc21 (racemic) | –
– | – | – | – | – | CCOC[C@@H](CC(C)C)NC(=O)[C@@H]1CNC[C@H](C(=O)N(c2ccc(C(C)C)cn2)C2CC2)[C@@H]1O [listing 2 of 2 here] | Activity (Rattus norvegicus [13]): Dose-dependent effect; Activity (Rattus norvegicus [14]): Active
– | – | – | – | – | CCOC[C@@H](CC(C)C)NC(=O)[C@@H]1CNC[C@H](C(=O)N(c2cc(OCC)c(CC)cn2)C2CC2)[C@@H]1O [listing 1 of 2 here] | logD [12]: 0.93
2600 | – | – | – | – | Cc1ccc(S(=O)(=O)N[C@@H]2CNC[C@H](C(=O)N(Cc3cccc(Cl)c3Cl)C3CC3)C2)cc1 (racemic) | –
0.4 | 533 | 2 | 679 | – | COCCCn1cc(CN(C(=O)[C@H]2CNC[C@@H](C(=O)Nc3c(C)cccc3OC)C2)C2CC2)c2ccccc21 | –
– | – | – | – | 61 | CCOC[C@@H](CC(C)C)NC(=O)[C@@H]1CNC[C@H](C(=O)N(c2cc(OC)c(C(C)C)cn2)C2CC2)[C@@H]1O [listing 1 of 2 here] | Cmax/dose (Rattus norvegicus [6]): 74 nM/mg/kg; clearance [7]: 40 mL/min/kg; Vd [8]: 6.1 L/kg; half-life [10]: 7.7 h; logD [12]: 0.93; AUC/dose (Rattus norvegicus [11]): 511 nM·h/mg/kg
– | – | – | – | – | CCOC[C@@H](CC(C)C)NC(=O)[C@@H]1CNC[C@H](C(=O)N(c2cc(OCC)c(CC)cn2)C2CC2)C1 [listing 2 of 2 here] | logD [12]: 2.1
0.8 | 252 | 6 | 289 | – | CCOC[C@@H](CC(C)C)NC(=O)[C@@H]1CNC[C@H](C(=O)N(c2ccc(C(C)C)c(OCCCOC)n2)C2CC2)C1 | IC50 [3]: 3300 nM
– | – | – | – | 45 | CCOC[C@@H](CC(C)C)NC(=O)[C@@H]1CNC[C@H](C(=O)N(c2ccc(C(C)C)cn2)C2CC2)C1.O=C(O)/C=C/C(=O)O | Cmax/dose (Rattus norvegicus [6]): 63 nM/mg/kg; clearance [7]: 60 mL/min/kg; Vd [8]: 7.2 L/kg; half-life [10]: 6.5 h; AUC/dose (Rattus norvegicus [11]): 296 nM·h/mg/kg
4 | – | 5340 | – | – | CCOC[C@@H](CC(C)C)NC(=O)[C@@H]1CNC[C@H](C(=O)N(c2ccc(C(C)C)cc2)C2CC2)C1 | –
– | – | – | – | – | CCOC[C@@H](CC(C)C)NC(=O)[C@@H]1CNC[C@H](C(=O)N(c2ccc(C(C)C)cn2)C2CC2)C1 [listing 2 of 2 here] | logD [12]: 4.9
0.6 | 54 | 2.5 | 22 | – | CCOC[C@@H](CC(C)C)NC(=O)[C@@H]1CNC[C@H](C(=O)N(c2cc(OCC)c(CC)cn2)C2CC2)[C@@H]1O [listing 2 of 2 here] | –
0.3 | 214 | 2 | 115 | – | CCOC[C@@H](CC(C)C)NC(=O)[C@@H]1CNC[C@H](C(=O)N(c2cc(OCCCOC)c(C(C)C)cc2F)C2CC2)C1 | –
– | 142 | 2 | 22 | – | CCOC[C@@H](CC(C)C)NC(=O)[C@@H]1CNC[C@H](C(=O)N(c2cc(OC)c(C(C)C)cn2)C2CC2)[C@@H]1O [listing 2 of 2 here] | –

Structure (SMILES) | IC50 (Renin [1]) [nM] | microsomal CLint [2] [µL/min/mg] | IC50 (Renin [4]) [nM] | microsomal CLint [5] [µL/min/mg] | bioavailability [9] [%] | also measured
CCOC[C@@H](CC(C)C)NC(=O)[C@@H]1CNC[C@H](C(=O)N(c2ccc(C(C)C)cn2)C2CC2)[C@@H]1O [listing 1 of 2 here] | 0.2 | 52 | 0.6 | < 3.4 | – | IC50 [3]: > 30000 nM
